Measurements taken from patent publication US9745324B2, “Iminothiadiazepane dioxide compounds as BACE inhibitors, compositions, and their use” (Merck Sharp & Dohme Corp., priority 2013, dated 2017).

Experiments:
[1] = target: soluble human BACE1 catalytic domain (Homo sapiens (Human), UniProt P56817); assay: BACE1 HTRF FRET Assay; format: biochemical; conditions: Ki calculated from IC50 using the Cheng-Prusoff equation; QSY7-APPswe-Eu substrate, pH 5.0
From the text: Reagents: Na^+-Acetate pH 5.0; 1% Brij-35; Glycerol; Dimethyl Sulfoxide (DMSO); Recombinant human soluble BACE1 catalytic domain (>95% pure); APP Swedish mutant peptide substrate (QSY7-APP^swe-Eu): QSY7-[…]-Europium-amide (SEQ ID 1).
A homogeneous time-resolved FRET assay can be used to determine IC50 values for inhibitors of the soluble human BACE1 catalytic domain. This assay monitors the increase of 620 nm fluorescence that resulted from BACE1 cleavage of an APPswedish APP^swe mutant peptide FRET substrate (QSY7-[…]-Europium-amide (SEQ ID 1)). This substrate contains an N-terminal QSY7 moiety that serves as a quencher of the C-terminal Europium fluorophore (620 nm Em). […] Inhibition of BACE1 cleavage of the QSY7-APP^swe-Eu substrate by inhibitors is manifested as a suppression of 620 nm fluorescence.
Varying concentrations of inhibitors at 3× the final desired concentration in a volume of 10 ul are preincubated with purified human BACE1 catalytic domain (3 nM in 10 μl) for 30 minutes at 30° C. in reaction buffer containing 20 mM Na-Acetate pH 5.0, 10% glycerol, 0.1% Brij-35 and 7.5% DSMO. Reactions are initiated by addition of 10 μl of 600 nM QSY7-APP^swe-Eu substrate (200 nM final) to give a final reaction volume of 30 μl in a 384 well Nunc HTRF plate. The reactions are incubated at 30° C. for 1.5 hours. The 620 nm fluorescence is then read on a Rubystar HTRF plate reader (BMG Labtechnologies) using a 50 millisecond delay followed by a 400 millisecond acquisition time window. Inhibitor IC50 values are derived from non-linear regression analysis of concentration response curves.

[2] = target: purified human autoBACE-2 (Homo sapiens, UniProt Q9Y5Z0); assay: BACE-2 Assay (BACE-HTRF assay); format: biochemical; conditions: Ki calculated from IC50 using the Cheng-Prusoff equation; QSY7-EISEVNLDAEFC-Eu-amide substrate, pH 5.0; read-out: BACE2 Ki
Protocol: DMSO is present at 5% final concentration in the assay. Following laser excitation of sample wells at 320 nm, the fluorescence signal at 620 nm is collected for 400 ms following a 50 μs delay on a RUBYstar HTRF plate reader (BMG Labtechnologies). Raw RFU data is normalized to maximum (1.0 nM BACE/DMSO) and minimum (no enzyme/DMSO) RFU values. […] The Ki values are calculated from the IC50 using the Cheng-Prusoff equation.

soluble human BACE1 catalytic domain, sequence (P56817 75-416): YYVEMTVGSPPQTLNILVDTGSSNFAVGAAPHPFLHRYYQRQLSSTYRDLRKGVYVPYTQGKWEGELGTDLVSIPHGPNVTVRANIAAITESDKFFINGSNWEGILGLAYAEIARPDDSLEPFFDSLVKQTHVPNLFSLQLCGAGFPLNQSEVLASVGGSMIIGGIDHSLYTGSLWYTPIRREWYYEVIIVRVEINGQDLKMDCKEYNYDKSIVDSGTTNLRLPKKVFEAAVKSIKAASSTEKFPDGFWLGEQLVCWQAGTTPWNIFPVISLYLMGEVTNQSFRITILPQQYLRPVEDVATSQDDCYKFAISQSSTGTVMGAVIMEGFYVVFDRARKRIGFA
purified human autoBACE-2, sequence (Q9Y5Z0 63-518 limits assumed): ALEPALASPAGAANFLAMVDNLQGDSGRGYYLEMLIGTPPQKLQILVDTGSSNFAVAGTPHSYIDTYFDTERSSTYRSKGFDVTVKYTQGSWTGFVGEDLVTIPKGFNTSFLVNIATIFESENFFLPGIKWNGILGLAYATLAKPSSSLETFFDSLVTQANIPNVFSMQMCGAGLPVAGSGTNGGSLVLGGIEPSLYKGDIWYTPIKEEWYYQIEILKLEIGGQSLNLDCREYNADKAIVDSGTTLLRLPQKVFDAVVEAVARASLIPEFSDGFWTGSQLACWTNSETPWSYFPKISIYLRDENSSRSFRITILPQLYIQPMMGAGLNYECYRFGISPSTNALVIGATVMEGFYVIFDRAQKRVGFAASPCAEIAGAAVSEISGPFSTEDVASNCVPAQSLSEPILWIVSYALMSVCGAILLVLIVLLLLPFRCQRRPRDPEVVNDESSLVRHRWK

COc1cnc(C(=O)Nc2ccc(F)c([C@]3(C)CN(C)S(=O)(=O)C(C)(C)C(=N)N3)c2)cn1 [Example 1, N-{4-fluoro-3-[(4R)-6-imino-2,4,7,7-tetramethyl-1,1-dioxido-1,2,5-thiadiazepan-4-yl]phenyl}-5-methoxypyrazine-2-carboxamide]
Ki [1]: 37 nM | Ki [2]: 102 nM

CN1C[C@@](C)(c2cc(NC(=O)c3ccn(C(F)F)n3)ccc2F)NC(=N)C(C)(C)S1(=O)=O [Example 2, 1-(difluoromethyl)-N-{4-fluoro-3-[(4R)-6-imino-2,4,7,7-tetramethyl-1,1-dioxido-1,2,5-thiadiazepan-4-yl]phenyl}-1H-pyrazole-3-carboxamide]
Ki [1]: 46 nM | Ki [2]: 6 nM

CN1C[C@@](C)(c2cc(NC(=O)c3ccc(F)cn3)ccc2F)NC(=N)C(C)(C)S1(=O)=O [Example 3, 5-fluoro-N-{4-fluoro-3-[(4R)-6-imino-2,4,7,7-tetramethyl-1,1-dioxido-1,2,5-thiadiazepan-4-yl]phenyl}pyridine-2-carboxamide]
Ki [1]: 54 nM | Ki [2]: 13 nM

CN1C[C@@](C)(c2cc(NC(=O)c3ccc(OC(F)F)cn3)ccc2F)NC(=N)C(C)(C)S1(=O)=O [Example 4, 5-(difluoromethoxy)-N-{4-fluoro-3-[(4R)-6-imino-2,4,7,7-tetramethyl-1,1-dioxido-1,2,5-thiadiazepan-4-yl]phenyl}pyridine-2-carboxamide]
Ki [1]: 32 nM | Ki [2]: 144 nM

CN1C[C@@](C)(c2cc(NC(=O)c3ccc(C(F)(F)F)cn3)ccc2F)NC(=N)C(C)(C)S1(=O)=O [Example 5, N-{4-fluoro-3-[(4R)-6-imino-2,4,7,7-tetramethyl-1,1-dioxido-1,2,5--thiadiazepan-4-yl]phenyl}-5-(trifluoromethyl)pyridine-2-carboxamide]
Ki [1]: 59 nM | Ki [2]: 115 nM

COc1ccc(C(=O)Nc2ccc(F)c([C@]3(C)CN(C)S(=O)(=O)C(C)(C)C(=N)N3)c2)nc1 [Example 6, N-{4-fluoro-3-[(4R)-6-imino-2,4,7,7-tetramethyl-1,1-dioxido-1,2,5-thiadiazepan-4-yl]phenyl}-5-methoxypyridine-2-carboxamide]
Ki [1]: 33 nM | Ki [2]: 44 nM

CN1C[C@@](C)(c2cc(NC(=O)c3ccc(Cl)cn3)ccc2F)NC(=N)C(C)(C)S1(=O)=O [Example 7, 5-chloro-N-{4-fluoro-3-[(4R)-6-imino-2,4,7,7-tetramethyl-1,1-dioxido-1,2,5-thiadiazepan-4-yl]phenyl}pyridine-2-carboxamide]
Ki [2]: 8 nM

CN1C[C@@](C)(c2cc(NC(=O)c3ccc(C#N)cn3)ccc2F)NC(=N)C(C)(C)S1(=O)=O [Example 8, 5-cyano-N-{4-fluoro-3-[(4R)-6-imino-2,4,7,7-tetramethyl-1,1-dioxido-1,2,5-thiadiazepan-4-yl]phenyl}pyridine-2-carboxamide]
Ki [1]: 22 nM | Ki [2]: 32 nM

COc1cnc(C(=O)Nc2ccc(F)c([C@]3(C)CN(C)S(=O)(=O)C(C)(C)C(=N)N3)c2)c(C)c1 [Example 9, N-{4-fluoro-3-[(4R)-6-imino-2,4,7,7-tetramethyl-1,1-dioxido-1,2,5-thiadiazepan-4-yl]phenyl}-5-methoxy-3-methylpyridine-2-carboxamide]
Ki [1]: 68 nM | Ki [2]: 32 nM

COc1cnc(C(=O)Nc2ccc(F)c([C@]3(C)CN(C)S(=O)(=O)C(C)(C)C(=N)N3)c2)c(C)n1 [Example 10, N-{4-fluoro-3-[(4R)-6-imino-2,4,7,7-tetramethyl-1,1-dioxido-1,2,5-thiadiazepan-4-yl]phenyl}-5-methoxy-3-methylpyrazine-2-carboxamide]
Ki [1]: 62 nM | Ki [2]: 59 nM

Cc1cc(C#N)cnc1C(=O)Nc1ccc(F)c([C@]2(C)CN(C)S(=O)(=O)C(C)(C)C(=N)N2)c1 [Example 11, 5-cyano-N-{4-fluoro-3-[(4R)-6-imino-2,4,7,7-tetramethyl-1,1-dioxido-1,2,5-thiadiazepan-4-yl]phenyl}-3-methylpyridine-2-carboxamide]
Ki [1]: 24 nM | Ki [2]: 28 nM

CN1C[C@@](C)(c2cc(NC(=O)c3cnc(OCC(F)(F)F)cn3)ccc2F)NC(=N)C(C)(C)S1(=O)=O [Example 12, N-{4-fluoro-3-[(4R)-6-imino-2,4,7,7-tetramethyl-1,1-dioxido-1,2,5-thiadiazepan-4-yl]phenyl}-5-(2,2,2-trifluoroethoxy)pyrazine-2-carboxamide]
Ki [1]: 17 nM | Ki [2]: 171 nM

CN1C[C@@](C)(c2cc(NC(=O)c3cnccn3)ccc2F)NC(=N)C(C)(C)S1(=O)=O [Example 13, N-{4-fluoro-3-[(4R)-6-imino-2,4,7,7-tetramethyl-1,1-dioxido-1,2,5-thiadiazepan-4-yl]phenyl}pyrazine-2-carboxamide]
Ki [1]: 263 nM | Ki [2]: 110 nM

CN1C[C@@](C)(c2cc(NC(=O)c3cnc(OCCF)cn3)ccc2F)NC(=N)C(C)(C)S1(=O)=O [Example 14, 5-(2-fluoroethoxy)-N-{4-fluoro-3-[(4R)-6-imino-2,4,7,7-tetramethyl-1,1-dioxido-1,2,5-thiadiazepan-4-y]phenyl}pyrazine-2-carboxamide]
Ki [1]: 52 nM | Ki [2]: 217 nM

Cc1nc(C(=O)Nc2ccc(F)c([C@]3(C)CN(C)S(=O)(=O)C(C)(C)C(=N)N3)c2)no1 [Example 15, N-{4-fluoro-3-[(4R)-6-imino-2,4,7,7-tetramethyl-1,1-dioxido-1,2,5-thiadiazepan-4-yl]phenyl}-5-methyl-1,2,4-oxadiazole-3-carboxamide]
Ki [1]: 153 nM | Ki [2]: 27 nM

CN1C[C@@](C)(c2cc(NC(=O)c3cnsn3)ccc2F)NC(=N)C(C)(C)S1(=O)=O [Example 16, N-{4-fluoro-3-[(4R)-6-imino-2,4,7,7-tetramethyl-1,1-dioxido-1,2,5-thiadiazepan-4-yl]phenyl}-1,2,5-thiadiazole-3-carboxamide]
Ki [1]: 64 nM | Ki [2]: 25 nM

CN1C[C@@](C)(c2cc(NC(=O)c3cn4ccc(C#N)cc4n3)ccc2F)NC(=N)C(C)(C)S1(=O)=O [Example 17, 7-cyano-N-{4-fluoro-3-[(4R)-6-imino-2,4,7,7-tetramethyl-1,1-dioxido-1,2,5-thiadiazepan-4-yl]phenyl}imidazo[1,2-a]pyridine-2-carboxamide]
Ki [1]: 5630 nM | Ki [2]: 7490 nM

CN1C[C@@](C)(c2cc(NC(=O)c3ccn(C)n3)ccc2F)NC(=N)C(C)(C)S1(=O)=O [Example 18, N-{4-fluoro-3-[(4R)-6-imino-2,4,7,7-tetramethyl-1,1-dioxido-1,2,5-thiadiazepan-4-yl]phenyl}-1-methyl-1H-pyrazole-3-carboxamide]
Ki [1]: 271 nM | Ki [2]: 42 nM

Cc1cc(C(=O)Nc2ccc(F)c([C@]3(C)CN(C)S(=O)(=O)C(C)(C)C(=N)N3)c2)no1 [Example 19, N-{4-fluoro-3-[(4R)-6-imino-2,4,7,7-tetramethyl-1,1-dioxido-1,2,5-thiadiazepan-4-yl]phenyl}-5-methylisoxazole-3-carboxamide]
Ki [1]: 1360 nM | Ki [2]: 347 nM

Cc1nc2ccc(C(=O)Nc3ccc(F)c([C@]4(C)CN(C)S(=O)(=O)C(C)(C)C(=N)N4)c3)cc2o1 [Example 20, N-{4-fluoro-3-[(4R)-6-imino-2,4,7,7-tetramethyl-1,1-dioxido-1,2,5-thiadiazepan-4-yl]phenyl}-2-methyl-1,3-benzoxazole-6-carboxamide]
Ki [1]: 1140 nM | Ki [2]: > 9540 nM

CN1C[C@@](C)(c2cc(NC(=O)c3ccccn3)ccc2F)NC(=N)C(C)(C)S1(=O)=O [Example 21, N-{4-fluoro-3-[(4R)-6-imino-2,4,7,7-tetramethyl-1,1-dioxido-1,2,5-thiadiazepan-4-yl]phenyl}pyridine-2-carboxamide]
Ki [1]: 228 nM | Ki [2]: 43 nM

Cc1cc(C(=O)Nc2ccc(F)c([C@]3(C)CN(C)S(=O)(=O)C(C)(C)C(=N)N3)c2)on1 [Example 22, N-{4-fluoro-3-[(4R)-6-imino-2,4,7,7-tetramethyl-1,1-dioxido-1,2,5-thiadiazepan-4-yl]phenyl}-3-methylisoxazole-5-carboxamide]
Ki [1]: 1690 nM | Ki [2]: 1020 nM

CN1C[C@@](C)(c2cc(NC(=O)c3ncc(Cl)cc3F)ccc2F)NC(=N)C(C)(C)S1(=O)=O [Example 23, 5-chloro-3-fluoro-N-{4-fluoro-3-[(4R)-6-imino-2,4,7,7-tetramethyl-1,1-dioxido-1,2,5-thiadiazepan-4-yl]phenyl}pyridine-2-carboxamide]
Ki [1]: 21 nM | Ki [2]: 6.4 nM
